Results on 2 compounds are retold here after ChEMBL document CHEMBL5357061, “Enhanced Inhibition of Cancer Cell Migration by a Planar Catechin Analog” (ACS Med Chem Lett, 2024).

One test concerns RGM1. The test is described as follows: Inhibition of cell migration in rat RGM1 cells assessed as reduction in healing of scratched areas at 200 uM measured after 12 hrs by scratch-wound healing assay. Format: functional, cell-based.
The next test concerns RGK1. Kind of test: Inhibition of cell migration in rat RGK1 cells assessed as reduction in healing of scratched areas at 200 uM measured after 12 hrs by scratch-wound healing assay. Format: functional, cell-based.

Structures are written as SMILES. Active and inactive are the calls of the source. The calls are words filed in the database; no cut-off is given here.

With `Oc1cc(O)c2c(c1)O[C@H](c1ccc(O)c(O)c1)[C@@H](O)C2`, the inhibition result in the test with RGM1 and with RGK1 was “inactive” throughout.
Consider `CC1(C)O[C@H]2Cc3c(O)cc(O)cc3O[C@@H]2c2cc(O)c(O)cc21`, for which the inhibition result in the test on RGM1 and in the test with RGK1 was “Active” each time.
